According to patent US10434133B2, “Inflammation-suppressing composition including peptide” (KIRIN KABUSHIKI KAISHA, priority 2015, dated 2019):

System: microglia
Assay: TNF-α production of LPS/IFN-γ-stimulated isolated microglia (Test Examples 1 to 3)
Format: cell-based, mouse
Settings: peptides at 10 μM and 50 μM; FIG. 2
Protocol: Microglia were isolated from the mouse brain by the magnetic cell sorting method. Specifically, the brain removed from a mouse was treated with papain to obtain a brain tissue dispersion and the enzyme reaction was stopped. Subsequently, the dispersion was reacted to CD11b antibody (manufactured by Miltenyi Biotec), a common microglia marker magnetically labelled with superparamagnetic microbeads, to carry out magnetic separation whereby microglia were isolated. The isolated microglia cell was cultured for 12 hours in medium to which the above 336 dipeptides were added in a concentration of 50 μM each. Subsequently, 5 ng/ml of lipopolysaccharide (LPS, manufactured by SIGMA-ALDRICH) and 0.5 ng/ml of IFN-γ (manufactured by R&D system) were added thereto, the cell was further cultured for 12 hours and TNF-α contained in the culture supernatant was quantitatively determined using an ELISA kit (manufactured by eBioscience). […] Note that the results are average values of three consecutive data. Additionally, hereinafter the amino acids are shown in one-letter abbreviations. […] Note that, for the control, those cultured with no addition of the peptides were used as in Test Example 1. For comparison, the dipeptides having the same amino acid composition with different sequences, that it, VD and HL were also measured for the TNF-α production at different concentrations.

TDVE: tetrapeptide having DV as the core sequence
inflammation suppression effect against microglia (TNF-α): the most intense
